ChEMBL document CHEMBL1151887 (Bioorg Med Chem, 2009)

What was measured:
Adenosine receptor A3 [1] = target: T1, Adenosine receptor A3 (Rattus norvegicus, UniProt P28647); assay: Binding affinity to rat adenosine A3 receptor
T1 sequence (P28647 whole entry): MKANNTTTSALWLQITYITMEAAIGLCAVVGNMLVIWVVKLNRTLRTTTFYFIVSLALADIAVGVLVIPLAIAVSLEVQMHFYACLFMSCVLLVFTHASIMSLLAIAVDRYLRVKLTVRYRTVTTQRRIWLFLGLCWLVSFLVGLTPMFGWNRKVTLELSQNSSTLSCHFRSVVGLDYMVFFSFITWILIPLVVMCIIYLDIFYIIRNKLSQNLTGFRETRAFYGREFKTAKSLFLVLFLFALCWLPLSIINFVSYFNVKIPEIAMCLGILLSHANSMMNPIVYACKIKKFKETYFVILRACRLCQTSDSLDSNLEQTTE

Adenosine receptor A2a [2] = target: T2, Adenosine receptor A2a (Homo sapiens, UniProt P29274); assay: Displacement of [3H]CGS21680 from human recombinant adenosine A2a receptor expressed in HEK293 cells at 10 uM by liquid scintillation counting; assay type: cell-based
Adenosine receptor A3 [3] = target: T3, Adenosine receptor A3 (Homo sapiens, UniProt P0DMS8); assay: Displacement of [125I]I-AB-MECA from human recombinant adenosine A3 receptor expressed in CHO cells by liquid scintillation counting
T3 sequence (P0DMS8 whole entry): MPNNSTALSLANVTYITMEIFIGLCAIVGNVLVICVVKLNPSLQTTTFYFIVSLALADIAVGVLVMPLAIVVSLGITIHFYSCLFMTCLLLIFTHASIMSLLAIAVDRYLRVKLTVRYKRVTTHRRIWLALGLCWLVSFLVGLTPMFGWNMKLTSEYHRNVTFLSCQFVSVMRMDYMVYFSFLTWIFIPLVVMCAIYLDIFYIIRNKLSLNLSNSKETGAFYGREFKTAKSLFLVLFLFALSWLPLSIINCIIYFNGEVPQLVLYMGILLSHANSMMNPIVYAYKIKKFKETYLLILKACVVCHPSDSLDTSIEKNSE

Adenosine receptor A2a [4] = target: T2, Adenosine receptor A2a; assay: Displacement of [3H]CGS21680 from human recombinant adenosine A2a receptor expressed in HEK293 cells by liquid scintillation counting; assay type: cell-based
[5] = target: T4, Adenosine receptor A1 (Homo sapiens) (UniProt P30542); assay: Displacement of [3H]NECA from human recombinant adenosine A1 receptor expressed in CHO cells at 10 uM by liquid scintillation counting; assay type: cell-based
T4 sequence (whole entry): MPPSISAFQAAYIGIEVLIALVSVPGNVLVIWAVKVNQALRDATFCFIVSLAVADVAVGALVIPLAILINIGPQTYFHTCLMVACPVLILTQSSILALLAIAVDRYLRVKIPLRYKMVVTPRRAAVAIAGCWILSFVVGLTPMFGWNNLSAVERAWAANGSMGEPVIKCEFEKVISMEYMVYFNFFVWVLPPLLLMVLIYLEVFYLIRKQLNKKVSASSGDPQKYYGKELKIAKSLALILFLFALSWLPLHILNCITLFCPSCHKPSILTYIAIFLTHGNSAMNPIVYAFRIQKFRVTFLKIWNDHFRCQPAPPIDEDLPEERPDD

T2 sequence (P29274 whole entry): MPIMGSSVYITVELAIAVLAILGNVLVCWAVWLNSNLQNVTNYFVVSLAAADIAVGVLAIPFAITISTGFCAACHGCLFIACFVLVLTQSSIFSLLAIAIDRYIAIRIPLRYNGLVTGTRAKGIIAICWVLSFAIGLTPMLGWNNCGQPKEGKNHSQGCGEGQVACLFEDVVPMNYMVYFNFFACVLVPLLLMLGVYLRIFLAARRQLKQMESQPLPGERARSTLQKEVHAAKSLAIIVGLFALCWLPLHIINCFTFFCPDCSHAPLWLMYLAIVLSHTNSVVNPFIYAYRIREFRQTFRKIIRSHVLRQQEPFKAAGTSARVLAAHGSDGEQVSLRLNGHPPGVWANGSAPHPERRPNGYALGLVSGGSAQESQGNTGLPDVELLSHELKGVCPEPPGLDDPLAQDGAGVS

| Ki (Adenosine receptor A3 [1]) [µM] | inhibition (Adenosine receptor A2a [2]) [%] | Ki (Adenosine receptor A3 [3]) [µM] | Ki (Adenosine receptor A2a [4]) [µM] | inhibition [5] [%] | SMILES |
| --- | --- | --- | --- | --- | --- |
| 0.0828 | 30 |  |  |  | O[C@@H]1[C@H](O)CO[C@H]1n1cnc2c(NCc3cccc(Br)c3)nc(Cl)nc21 |
|  |  | 0.059 | 1.4 |  | O[C@@H]1[C@H](O)CO[C@H]1n1cnc2c(NCc3cccc(Br)c3)ncnc21 |
|  |  | 0.537 | 6.56 | 36 | O[C@@H]1[C@H](O)CO[C@H]1n1cnc2c(NCc3cccc(F)c3)ncnc21 |
|  | 43 |  |  |  | O[C@@H]1[C@H](O)CO[C@H]1n1cnc2c(NCc3cccc(I)c3)nc(Cl)nc21 |
|  | 42 | 0.284 |  | 43 | O[C@@H]1[C@H](O)CO[C@H]1n1cnc2c(NCc3cccc(F)c3)nc(Cl)nc21 |
|  | 25 | 0.0701 |  | 44 | CNc1ncnc2c1ncn2[C@@H]1OC[C@@H](O)[C@H]1O |
|  |  | 0.0902 | 0.997 |  | O[C@@H]1[C@H](O)CO[C@H]1n1cnc2c(NCc3cccc(I)c3)ncnc21 |
|  | 15 | 0.0375 |  | 49 | CNc1nc(Cl)nc2c1ncn2[C@@H]1OC[C@@H](O)[C@H]1O |
|  |  | 0.0761 | 3.41 |  | O[C@@H]1[C@H](O)CO[C@H]1n1cnc2c(NCc3cccc(Cl)c3)ncnc21 |
|  |  | 0.075 | 3.63 |  | O[C@@H]1[C@H](O)CO[C@H]1n1cnc2c(NCc3cccc(Cl)c3)nc(Cl)nc21 |
